Test results reported in patent US7572779B2 (priority 2001, dated 2009).

Test: Open-label, single-dose, randomized, crossover oral bioavailability study in healthy postmenopausal women volunteers
Conditions: single oral tablet
Source text: The study was an open-label, single-dose, randomized, crossover, bioavailability study in nine healthy postmenopausal women volunteers.
Comparison of treatments was based on ratio of least square means from analysis of variance and ratio of individual subject parameter values, e.g. ratio=(AUCtreatment A)/(AUCtreatment B).

In the case of CC(=O)Oc1ccc2c(c1)CC[C@@H]1[C@@H]2CC[C@]2(C)[C@@H](O)CC[C@@H]12 [17β-estradiol-3-acetate], the “Absorption as indicated by shape of serum estradiol concentration-time profiles” value is reported as “rapidly absorbed and hydrolyzed to 17β-estradiol in vivo”.
